Measured values published in patent publication US11691981B2, “Heterocyclic compounds, preparation methods therefor, and methods of uses thereof” (INVENTISBIO CO., LTD., priority 2019, dated 2023).

Molecular target: TGFβR1 (Homo sapiens (Human), UniProt P36897)
Assay: TGFβR1 kinase inhibition assay (ADP-Glo Kinase Assay)
Type: biochemical
Settings: 40 nM TGFβR1 in 2x enzyme mix, 5.4 μM ATP in 2x substrate mix, 120 min RT
Experimental: TGFβR1 kinase assay was performed according to the instruction manual of the ADP-Glo™ Kinase Assay kit provided by Promega. Prepare 1× Kinase buffer (50 mM Tris pH7.5, 0.1% BSA, 10 mM MgCl2, 1 mM DTT). Before activation reaction was started, Compounds were dissolved in DMSO and make 100× solution with 3-fold serial dilution for a total of 10 concentrations. Transfer 50 nL compounds to 384-well plate according to plate map using the automated liquid handler. […] Add 5 μL ADP-Glo Reagent to terminate the kinase reaction and deplete the remaining ATP, incubate at RT for 60 minutes. Add 10 μL Kinase Detection Reagent to convert ADP to ATP and allow the newly synthesized ATP to be measured using a luciferin reaction, incubate at RT for 30 minutes. Collect luminescence data with Envision.

Sequence of TGFβR1 (P36897 34-503): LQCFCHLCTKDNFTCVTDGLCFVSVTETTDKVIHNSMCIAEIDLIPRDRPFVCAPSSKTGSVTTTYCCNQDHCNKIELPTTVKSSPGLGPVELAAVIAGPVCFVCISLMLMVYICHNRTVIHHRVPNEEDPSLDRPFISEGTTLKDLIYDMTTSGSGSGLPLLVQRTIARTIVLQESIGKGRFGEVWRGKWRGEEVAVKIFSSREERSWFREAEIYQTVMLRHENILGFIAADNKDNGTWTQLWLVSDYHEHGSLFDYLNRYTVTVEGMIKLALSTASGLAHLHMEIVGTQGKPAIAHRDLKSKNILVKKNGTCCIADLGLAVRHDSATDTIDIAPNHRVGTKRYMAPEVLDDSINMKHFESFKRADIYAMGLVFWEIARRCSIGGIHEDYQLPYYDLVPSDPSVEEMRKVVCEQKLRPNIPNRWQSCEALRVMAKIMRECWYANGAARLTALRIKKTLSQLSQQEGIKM

| Compound | IC50 [nM] |
| --- | --- |
| CC(C)(O)c1cc(Nc2cc(Oc3cn(CC(F)(F)F)nc3C3CCOCC3)ccn2)ccn1 [Compound 69] | 454 |
| CC(C)(O)c1cc(Nc2cc(Oc3cc(C(F)F)nn3C3CCOCC3)ccn2)ccn1 [Compound 8] | 173 |
| CC(C)(O)c1cc(Nc2cc(Oc3cc(C(F)(F)F)nn3C3CCNC3)ccn2)ccn1 (centres unmarked) [Compound 32] | 868 |
| CC(C)(C)c1nc(C2CC2)sc1Oc1ccnc(Nc2ccnc(C(C)(C)O)c2)c1 [Compound 75] | 6690 |
| C[C@@H]1C[C@@H](n2nc(C3CC3)cc2Oc2ccnc(Nc3ccnc(C(C)(C)O)c3)c2)C[C@H](C)O1 [Compound 18] | > 10000 |
| C[C@@H]1C[C@H](n2nc(C(F)(F)F)cc2Oc2ccnc(Nc3ccnc(C(C)(C)O)c3)c2)C[C@H](C)O1 [Compound 31] | 1040 |
| COc1cc(Oc2ccnc(Nc3ccnc(C(C)(C)O)c3)c2)n(C2CCOCC2)n1 [Compound 39] | 126 |
| CC(C)(C)n1nc(C2CC2)cc1Oc1ccnc(Nc2ccc(S(N)(=O)=O)cc2)c1 [Compound 15] | 94 |
| CC(C)(O)c1cc(Nc2cc(Oc3cc(C(F)(F)F)nn3C3CNC3)ccn2)ccn1 [Compound 24] | 223 |
| CC(C)(O)c1cc(Nc2cc(Oc3cc(C4CC4)nn3C3CCOCC3)ncn2)ccn1 [Compound 3] | 825 |
| CC1(C)OC(=O)c2ccc(Nc3cc(Oc4cc(C5CC5)nn4C4CCOCC4)ccn3)cc21 [Compound 47] | 103 |
| CC(C)(O)c1cc(Nc2cc(Oc3cn(C4CCCC4)nc3C3CCOCC3)ccn2)ccn1 [Compound 68] | 631 |
| CC(C)c1nc(C2CCOCC2)c(Oc2ccnc(Nc3ccnc(C(C)(C)O)c3)c2)s1 [Compound 76] | 90 |
| CC(C)(O)c1cc(Nc2cc(Oc3cc(C(F)(F)F)nn3-c3ccncc3)ccn2)ccn1 [Compound 48] | 132 |
| COc1ccc(Oc2ccnc(Nc3ccnc(C(C)(C)O)c3)c2)c(C2CCOCC2)n1 [Compound 56] | 220 |
| CC(C)(O)c1cc(Nc2cc(Oc3cc(C(F)(F)F)nn3[C@H]3C[C@H]4CC[C@@H](C3)O4)ccn2)ccn1 [Compound 50] | 113 |
| CC(C)(O)c1cc(Nc2cc(Oc3ccc(C4CC4)nc3C3CCOCC3)ccn2)ccn1 [Compound 61] | 116 |
| CC(C)(O)c1cc(Nc2cc(Oc3cc(C(F)(F)F)nn3-c3cncnc3)ccn2)ccn1 [Compound 42] | 263 |
| CC(C)(O)c1cc(Nc2cc(Oc3cc(C(F)(F)F)nn3-c3cccnc3)ccn2)ccn1 [Compound 37] | 283 |
| CC(C)(O)c1cc(Nc2cc(Oc3cc(C(F)(F)F)nn3-c3ccc(C#N)cc3)ccn2)ccn1 [Compound 44] | 141 |
| C[C@@H]1C[C@H](n2nc(C3CC3)cc2Oc2ccnc(Nc3ccnc(C(C)(C)O)c3)c2)C[C@H](C)O1 [Compound 19] | 7710 |
| CC(C)(O)c1cc(Nc2cc(Oc3sc(C4CC4)nc3C3CCOCC3)ccn2)ccn1 [Compound 72] | 111 |
| CC(C)(O)c1cc(Nc2cc(Oc3cc(C(F)(F)F)nn3-c3ccc(Cl)cc3)ccn2)ccn1 [Compound 43] | 159 |

The remaining lines, values ahead:

| IC50 [nM] | Compound |
| --- | --- |
| 89 | C[C@@H]1C[C@@H](n2nc(C(F)(F)F)cc2Oc2ccnc(Nc3ccnc(C(C)(C)O)c3)c2)C[C@H](C)O1 [Compound 30] |
| 88 | CC(C)(O)c1cc(Nc2cc(Oc3cc(C(F)(F)F)nn3C3CCNCC3)ccn2)ccn1 [Compound 26] |
| 86 | CC(C)(O)c1cc(Nc2cc(Oc3cc(C(F)(F)F)nn3-c3ccc(F)cc3)ccn2)ccn1 [Compound 35] |
| 82 | Cc1ccc(Oc2ccnc(Nc3ccnc(C(C)(C)O)c3)c2)c(C(F)(F)F)n1 [Compound 63] |
| 80 | CC(C)(O)c1cc(Nc2cc(Sc3cn(C4CC4)nc3C3CCOCC3)ccn2)ccn1 [Compound 70] |
| 71 | CC(C)(O)c1cc(Nc2cc(Oc3cc(C(F)(F)F)nn3-c3ccccc3Cl)ccn2)ccn1 [Compound 40] |
| 66 | CC(C)n1nc(C(F)(F)F)cc1Oc1ccnc(Nc2ccnc(C(C)(C)O)c2)c1 [Compound 25] |
| 66 | CC1(C)OC(=N)c2ccc(Nc3cc(Oc4cc(C5CC5)nn4C4CCOCC4)ccn3)cc21 [Compound 46] |
| 61 | CC(C)(O)c1cc(Nc2cc(Oc3cc(C4CC4)nn3C3CCOCC3)ccn2)ccn1 [Compound 1] |
| 60 | Cc1cc(Oc2ccnc(Nc3ccnc(C(C)(C)O)c3)c2)n(C2CCOCC2)n1 [Compound 4] |
| 58 | CC(C)(O)c1cc(Nc2cc(Oc3cc(C(F)(F)F)nn3C3CC3)ccn2)ccn1 [Compound 27] |
| 57 | CC(C)(O)c1cc(Nc2cc(Oc3cn(C4CC4)nc3C(=O)Nc3ccccc3F)ccn2)ccn1 [Compound 80] |
| 56 | CC(C)(O)c1cc(Nc2cc(Oc3cc(C(F)(F)F)nn3-c3cccc(Cl)c3)ccn2)ccn1 [Compound 36] |
| 55 | CC(C)(O)c1cc(Nc2cc(Oc3cc(C(F)(F)F)nn3-c3ccccc3C#N)ccn2)ccn1 [Compound 51] |
| 54 | CCn1nc(C(F)(F)F)cc1Oc1ccnc(Nc2ccnc(C(C)(C)O)c2)c1 [Compound 22] |
| 51 | CC(C)(O)c1cc(Nc2cc(Oc3cn(C4CCC4)nc3C3CCOCC3)ccn2)ccn1 [Compound 67] |

| IC50 [nM] | Compound |
| --- | --- |
| 50 | CC(C)(O)c1cc(Nc2cc(Oc3ccc(C(F)(F)F)nc3C3CCOCC3)ccn2)ccn1 [Compound 60] |
| 49 | CC(C)(O)c1cc(Nc2cc(Oc3cc(C(F)(F)F)nn3C3CCCNC3)ccn2)ccn1 (centres unmarked) [Compound 33] |
| 48 | CC(C)(O)c1cc(Nc2cc(Oc3cc(C(F)(F)F)nn3CC3CC3)ccn2)ccn1 [Compound 20] |
| 46 | CC(C)(O)c1cc(Nc2cc(Oc3cc(C4CC4)nn3C(C)(C)C)ccn2)ccn1 [Compound 6] |
| 43 | CC(C)(O)c1cc(Nc2cc(Oc3cc(C4CC4)nn3C3CC3)ccn2)ccn1 [Compound 5] |
| 35 | CC(C)(O)c1cc(Nc2cc(Oc3cc(C4CC4)nn3[C@H]3C[C@H]4CC[C@@H](C3)O4)ccn2)ccn1 [Compound 28] |
| 32 | CC(C)(O)c1cc(Nc2cc(Oc3cc(C(F)(F)F)nn3[C@@H]3C[C@H]4CC[C@@H](C3)O4)ccn2)ccn1 [Compound 49] |
| 32 | COc1ccc(Oc2ccnc(Nc3ccnc(C(C)(C)O)c3)c2)c(C)n1 [Compound 64] |
| 29 | Cc1ccc(Oc2ccnc(Nc3ccc(C(C)(C)O)nc3)c2)c(C)n1 [Compound 62] |
| 25 | CC(C)(O)c1cc(Nc2cc(Oc3c(C4CCOCC4)nn4c3CCC4)ccn2)ccn1 [Compound 71] |
| 18 | CC(C)(O)c1cc(Nc2cc(Oc3cc(C(F)(F)F)nn3-c3ccccc3F)ccn2)ccn1 [Compound 38] |
| 17 | C[C@@H]1CC(c2nn(C3CC3)cc2Oc2ccnc(Nc3ccnc(C(C)(C)O)c3)c2)C[C@H](C)O1 (some centres unmarked) [Compound 74] |
| 14 | NS(=O)(=O)c1ccc(Nc2cc(Oc3cn(C4CC4)nc3C3CCOCC3)ccn2)cc1 [Compound 73] |
| 14 | Cc1nc(C(F)(F)F)ccc1Oc1ccnc(Nc2ccnc(C(C)(C)O)c2)c1 [Compound 65] |
| 4 | Cc1ccc(Oc2ccnc(Nc3ccnc(C(C)(C)O)c3)c2)c(CC(C)C)n1 [Compound 66] |

Molecular target: TGFβR2 (Homo sapiens (Human), UniProt P37173)
Assay: TGFβR2 kinase inhibition assay (ADP-Glo)
Type: biochemical
Settings: 10 uM ATP, 120 min room temperature
Experimental: The TGFβR2 enzyme reaction was carried out as follows: 50 nL of compound in DMSO (or DMSO controls) were stamped into 384 white, low-volume plates. 2.5 μL of 2× enzyme solution (final enzyme concentration was 3 ng/uL in 40 mMTris, 7.5; 20 mM MgCl2; 0.1 mg/mL BSA; 1 mM DTT) was dispensed into assay plate. The plate was then sealed and spun at 1000 rpm for 30 s and incubated at room temperature for 10 min. Followed by addition of 2.5 μL of 2× substrate solution that contains both ATP (to make a final concentration of 10 uM) and TGFβR2 substrate (final concentration of 0.2 ug/uL). The plate was then sealed and spun at 1000 rpm for 30 s and the reaction was then incubated at room temperature for 120 min. After that 5 μL ADP-Glo™ Reagent was added into the assay wells to stop the reaction and deplete unconsumed ATP for 40 min at room temperature; then, 10 μL of Detection Reagent was added into the assay wells, followed by 40 min incubation to develop luminescence. The luminescence signal was then collected on Envision 2104 plate reader.

Sequence of TGFβR2 (P37173 23-567): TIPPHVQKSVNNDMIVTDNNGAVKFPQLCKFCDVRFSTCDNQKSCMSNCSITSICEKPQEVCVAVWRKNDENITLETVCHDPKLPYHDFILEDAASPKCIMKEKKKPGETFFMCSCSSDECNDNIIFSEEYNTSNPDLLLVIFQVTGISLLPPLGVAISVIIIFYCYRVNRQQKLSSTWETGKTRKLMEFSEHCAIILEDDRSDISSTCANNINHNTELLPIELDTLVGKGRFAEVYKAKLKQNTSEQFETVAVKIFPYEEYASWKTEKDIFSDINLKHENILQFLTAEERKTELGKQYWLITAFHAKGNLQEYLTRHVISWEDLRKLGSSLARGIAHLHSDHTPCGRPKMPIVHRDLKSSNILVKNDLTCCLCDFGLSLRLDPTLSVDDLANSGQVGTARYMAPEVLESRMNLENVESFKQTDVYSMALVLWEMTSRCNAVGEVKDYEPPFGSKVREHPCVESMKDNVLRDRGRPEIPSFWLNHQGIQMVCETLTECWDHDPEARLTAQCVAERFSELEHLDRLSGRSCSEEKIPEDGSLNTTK

| Compound | IC50 [nM] |
| --- | --- |
| CC(C)(O)c1cc(Nc2cc(Oc3cn(CC(F)(F)F)nc3C3CCOCC3)ccn2)ccn1 [Compound 69] | > 100000 |
| CC(C)(O)c1cc(Nc2cc(Oc3cc(C(F)F)nn3C3CCOCC3)ccn2)ccn1 [Compound 8] | > 100000 |
| CC(C)(O)c1cc(Nc2cc(Oc3cn(C4CC4)nc3C3CCC(F)(F)CC3)ccn2)ccn1 [Compound 77] | 39000 |
| CC(C)(C)n1nc(C2CC2)cc1Oc1ccnc(Nc2ccc(S(N)(=O)=O)cc2)c1 [Compound 15] | > 100000 |
| CC(C)(O)c1cc(Nc2cc(Oc3cc(C4CC4)nn3C3CCOCC3)ncn2)ccn1 [Compound 3] | > 100000 |
| CC(C)(O)c1cc(Nc2cc(Oc3cn(C4CCCC4)nc3C3CCOCC3)ccn2)ccn1 [Compound 68] | > 100000 |

Second part, the molecule after the results:

| IC50 [nM] | Compound |
| --- | --- |
| > 100000 | CC(C)(O)c1cc(Nc2cc(Oc3cn(C4CCC4)nc3C3CCOCC3)ccn2)ccn1 [Compound 67] |
| > 100000 | CC(C)(O)c1cc(Nc2cc(Oc3cc(C(F)(F)F)nn3C3CCCNC3)ccn2)ccn1 (centres unmarked) [Compound 33] |
| > 100000 | CC(C)(O)c1cc(Nc2cc(Oc3cc(C4CC4)nn3C3CC3)ccn2)ccn1 [Compound 5] |
| 36000 | CC(C)(O)c1cc(Nc2cc(Oc3cc(C4CC4)nn3[C@H]3C[C@H]4CC[C@@H](C3)O4)ccn2)ccn1 [Compound 28] |
| 15000 | CC(C)(O)c1cc(Nc2cc(Oc3cc(C(F)(F)F)nn3-c3ccccc3F)ccn2)ccn1 [Compound 38] |
